Assay results: US8362203B2, “Non-natural peptides as models for the development of antibiotics” (priority 2009, dated 2013)

Assays:
[1] = tested on: E. coli helix 31 hairpin RNA (ECh31WT); assay: Fluorescence titration of 5′-fluorescein-labeled helix 31 RNA with peptide; type: binding; conditions: 0.5 μM h31, 10 mM HEPES, 50 mM NaCl, 1 mM Na2EDTA, pH 7.5, 25° C.; hyperbolic curve fitting; read-out: apparent KD (fluorescence)
Procedure: Fluorescence methods. Fluorescence measurements were taken on a RF-5301PC spectrofluorometer (Shimadzu) at 25° C. using a 1 cm path-length quartz fluorometer cell. The emission spectra were acquired by scanning between 500 and 600 nm with an excitation wavelength of 494 nm, slit widths of 3 nm for excitation and emission. The fluorescent titrations were performed by adding increasing concentrations of peptide (5-150 μM) to 350 μl of 0.5 μM 5′-fluorescein-labeled helix 31 RNA in HEPES buffer (10 mM HEPES, 50 mM NaCl, 1 mM Na2EDTA at pH 7.5) and incubated for 2 min for each concentration point followed by spectrum scanning. […] RNA-peptide binding was determined by quenching of the fluorescence intensity upon addition of peptide to the sample. The fluorescence intensity at 523 nm was converted to a fraction bound ratio and the dissociation constant (KD) of RNA-peptide binding was determined by curve fitting using the Kaleidagraph™ 3.0 program, as described in Chapter 3, Section 3.5.3
Fluorescence titration assay. […] In this experiment, the fluorescence intensity decreased upon increases in the peptide concentration (FIG. 54); however, the percent change in the observed fluorescence intensity was fairly small (7%). […]
The relatively poor fits may be a result of the fact that the fluorescence changes are quite small leading to greater error. […]

[2] = tested on: E. coli helix 31 hairpin RNA (ECh31WT); assay: Circular dichroism titration of helix 31 RNA with peptide; type: binding; conditions: 0.5 μM h31, 100 mM NaCl, 10 mM sodium phosphate, 0.1 mM Na2EDTA, pH 7; CD at 270 nm; read-out: apparent KD (circular dichroism)
Procedure: Binding studies with CD. The titration was performed by adding increasing concentrations of peptide (10-80 μM) to 1 mL of 0.5 μM ECh31WT RNA in 10 mM sodium phoshate, 100 mM NaCl, 0.1 mM Na2EDTA at pH 7, and incubated for 2 min for each concentration point followed by spectrum scanning. Prior to titration, the RNA was renatured as described in Chapter 3, Section 3.2.2. RNA-peptide binding was determined by observing CD changes at 270 nm upon addition of peptide to the sample. The CD at 270 nm was converted to a fraction bound ratio and the dissociation constant (KD) of RNA-peptide binding was determined by curve fitting using the Kaleidagraph™ 3.0 program, as described in Chapter 3, Section 3.2.4.
Circular dichroism studies. CD was employed to assess the conformational changes in helix 31 upon binding of the peptide. […] Conformational changes in helix 31 measured by circular dichroism spectroscopy was performed in 100 mM NaCl, 10 mM sodium phosphate, and 0.1 mM Na2EDTA at pH 7. […] The dissociation constant (KD) of RNA-peptide binding was determined by plotting Fr versus peptide concentration, and by curve fitting to Equation, Fr=[P]^n/([P]^n+KD^n) where [P] is the peptide concentration, n is the Hill coefficient, and KD is the apparent dissociation constant (FIG. 56B). […]

[3] = tested on: E. coli h31 RNA (ECh31WT); assay: SPR kinetic analysis of binding to immobilized biotinylated helix 31 RNA
Procedure: SPR methods. All immobilization and subsequent binding studies were performed using a BIAcore 2000 instrument set at a temperature of 25° C. Standard dextran surface BIAcore sensorchips (Sensor chip CM5) were purchased from BIAcore. Standard desorb and sanitize routines were performed according to the BIAcore guidelines before docking a new CM5 sensor chip. All buffers were filtered through sterile 0.2 μm nylon membranes (Millipore™) under vacuum. Before derivatizing the flow cells with streptavidin, the CM5 sensor chip was pre-conditioned using three successive 10 μl injections of chip-preparation solution (10 mM NaOH, 500 mM NaCl) at 100 μl/min, followed by a normalization routine using BIAnormalizing solution (40% glycerol). Streptavidin derivatization was performed as described in Chapter 3. Prior to immobilization, the solution of biotinylated RNA in HBS-EP buffer (10 mM HEPES, 3 mM EDTA, 150 mM NaCl, 0.005% P20 at pH 7.4) was renatured by heating to 90° C. for 2 min followed by placing on ice. Flow cells were functionalized by injecting 30 μl of RNA at a time using the MANUAL INJECT command at a flow rate of 10 μl/min, until the desired immobilization level is reached. One of the flow cells was used to immobilize RNA (typically FC4), while another one adjacent to it (FC3) remained unmodified to serve as a blank-control for matrix effects. Levels of RNA captured were calculated by subtracting […] for each flow cell. After RNA immobilization, FC3 and FC4 were blocked with 100 μL of 1 mg/mL biotin at 5 μL/min.
Peptide samples were prepared by serial dilutions from stock solutions into micro-centrifuge tubes. Dilutions are made by the same running buffer to avoid buffer mismatches. […]
Biotinylated helix 31 RNA was immobilized onto a streptavidin-coated CM5 chip and differing concentrations of 17 (TYLPWPA)-GFP (“TYLPWPA” disclosed as SEQ ID NO: 2) were injected as the analyte. […] Finally, the apparent dissociation constants were determined under optimized conditions. […]

**Q.** With “TYLPWPA [peptide 17, 7-mer peptide selected by phage display against helix 31 RNA]” as the substance, how does the Kd [1] read?
**A.** 27 ± 4 µM

**Q.** And the Kd [2]?
**A.** 28 ± 10 µM

**Q.** What about the “affinity for helix 31 RNA (in words)” value [3] of the same substance?
**A.** moderate affinity

**Q.** And the “KD (SPR, kd/ka)” value ([3]; Langmuir 1:1 model, same running buffer, pH 7.5, 50 μL/min)?
**A.** 28 ± 1 µM

**Q.** What about the “SPR response due to binding, free peptide as analyte” value ([3]; peptide without GFP) of the same substance?
**A.** negligible responses
